Measured values from PubChem BioAssay AID2060509 (Molecular Pharmacology Branch, DTP, NCI, 2025).

Test system: 485176-168-R4-J1-PDC spheroids with HUVEC/MSC, viability
Assay: Anticancer human tumor 485176-168-R4-J1-PDC patient-derived pancreatic adenocarcinoma cell line growth inhibition [GQUAD]
Conditions: for IC50: curve of first compound; for viability, T/C: stronger effect = lower value
Method in brief: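 Tumor cells were grown as complex spheroids with HUVEC endothelial cells and mesenchymal stem cells as stroma. G-quadruplex stabilizers were combined with targeted agents over half-log dilutions from near the clinical Cmax, or from 10 microM.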

[1] = second compound 0.0316 µM, first compound 0.0316 µM
[2] = second compound 0.0316 µM, first compound 0.1 µM
[3] = second compound 0.0316 µM, first compound 0.316 µM
[4] = second compound 0.0316 µM, first compound 1 µM
[5] = second compound 0.0316 µM, first compound 3.16 µM
[6] = second compound 0.0316 µM, first compound 10 µM
[7] = second compound 0.1 µM, first compound 0.0316 µM
[8] = second compound 0.1 µM, first compound 0.1 µM
[9] = second compound 0.1 µM, first compound 0.316 µM
[10] = second compound 0.1 µM, first compound 1 µM
[11] = second compound 0.1 µM, first compound 3.16 µM
[12] = second compound 0.1 µM, first compound 10 µM
[13] = second compound 0.316 µM, first compound 0.0316 µM
[14] = second compound 0.316 µM, first compound 0.1 µM
[15] = second compound 0.316 µM, first compound 0.316 µM
[16] = second compound 0.316 µM, first compound 1 µM
[17] = second compound 0.316 µM, first compound 3.16 µM
[18] = second compound 0.316 µM, first compound 10 µM
[19] = second compound 1 µM, first compound 0.0316 µM
[20] = second compound 1 µM, first compound 0.1 µM
[21] = second compound 1 µM, first compound 0.316 µM
[22] = second compound 1 µM, first compound 1 µM
[23] = second compound 1 µM, first compound 3.16 µM
[24] = second compound 1 µM, first compound 10 µM
[25] = second compound 3.16 µM, first compound 0.0316 µM
[26] = second compound 3.16 µM, first compound 0.1 µM
[27] = second compound 3.16 µM, first compound 0.316 µM
[28] = second compound 3.16 µM, first compound 1 µM
[29] = second compound 3.16 µM, first compound 3.16 µM
[30] = second compound 3.16 µM, first compound 10 µM
[31] = second compound 10 µM, first compound 0.0316 µM
[32] = second compound 10 µM, first compound 0.1 µM
[33] = second compound 10 µM, first compound 0.316 µM
[34] = second compound 10 µM, first compound 1 µM
[35] = second compound 10 µM, first compound 3.16 µM
[36] = second compound 10 µM, first compound 10 µM
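Note: spheroids exposed to compounds for seven days before readout.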
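Throughout, for viability, T/C: percent viability relative to DMSO vehicle control wells as 100%.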

COc1cccc2c1C(=O)c1c(O)c3c(c(O)c1C2=O)CC(O)(C(=O)CO)CC3OC1CC(N)C(O)C(C)O1 (stereo unspecified) + Cc1cnc(CNC(=O)c2c(=O)c3ccc(N4CCCN(C)CC4)nc3n3c2sc2ccccc23)cn1
IC50 (second compound 0.0316 µM): 398 nM | IC50 (second compound 0.1 µM): 141 nM | IC50 (second compound 0.316 µM): 196 nM | IC50 (second compound 1 µM): < 31.6 nM | IC50 (second compound 3.16 µM): < 31.6 nM | IC50 (second compound 10 µM): < 31.6 nM | viability, T/C [1]: 81.3% | viability, T/C [2]: 60.9% | viability, T/C [3]: 60.5% | viability, T/C [4]: 13.4% | viability, T/C [5]: 3.49% | viability, T/C [6]: 0.42% | viability, T/C [7]: 80.5% | viability, T/C [8]: 55.9% | viability, T/C [9]: 34.5% | viability, T/C [10]: 20.1% | viability, T/C [11]: 1.67% | viability, T/C [12]: 0.88% | viability, T/C [13]: 55.8% | viability, T/C [14]: 50.8% | viability, T/C [15]: 48.7% | viability, T/C [16]: 18.6% | viability, T/C [17]: 6.39% | viability, T/C [18]: 0.16% | viability, T/C [19]: 54.5% | viability, T/C [20]: 41% | viability, T/C [21]: 51.7% | viability, T/C [22]: 28.2% | viability, T/C [23]: 8.43% | viability, T/C [24]: 0.95% | viability, T/C [25]: 41.6% | viability, T/C [26]: 40.2% | viability, T/C [27]: 44.5% | viability, T/C [28]: 28.1% | viability, T/C [29]: 7.56% | viability, T/C [30]: 0.84% | viability, T/C [31]: 49.8% | viability, T/C [32]: 39.7% | viability, T/C [33]: 44.6% | viability, T/C [34]: 30.4% | viability, T/C [35]: 7.78% | viability, T/C [36]: 1.08%

O=c1[nH]cc(F)c(=O)[nH]1 + Cc1[nH]c2ccc(F)cc2c1-c1nc2c3cccnc3c3ncccc3c2[nH]1
IC50 (second compound 0.0316 µM): 928 nM | IC50 (second compound 0.1 µM): 967 nM | IC50 (second compound 0.316 µM): > 10000 nM | IC50 (second compound 1 µM): 842 nM | IC50 (second compound 3.16 µM): 2520 nM | IC50 (second compound 10 µM): 807 nM | viability, T/C [1]: 89.8% | viability, T/C [2]: 83.4% | viability, T/C [3]: 75.1% | viability, T/C [4]: 46.7% | viability, T/C [5]: 51.4% | viability, T/C [6]: 46.6% | viability, T/C [7]: 86.7% | viability, T/C [8]: 96.3% | viability, T/C [9]: 80.9% | viability, T/C [10]: 45.9% | viability, T/C [11]: 48.8% | viability, T/C [12]: 52.5% | viability, T/C [13]: 92.7% | viability, T/C [14]: 102% | viability, T/C [15]: 76.8% | viability, T/C [16]: 55.5% | viability, T/C [17]: 46.2% | viability, T/C [18]: 54.8% | viability, T/C [19]: 81.9% | viability, T/C [20]: 104% | viability, T/C [21]: 68.5% | viability, T/C [22]: 49.8% | viability, T/C [23]: 43.2% | viability, T/C [24]: 47.2% | viability, T/C [25]: 93.7% | viability, T/C [26]: 86.5% | viability, T/C [27]: 69.5% | viability, T/C [28]: 65.1% | viability, T/C [29]: 39.7% | viability, T/C [30]: 47.2% | viability, T/C [31]: 94.1% | viability, T/C [32]: 80.5% | viability, T/C [33]: 60.5% | viability, T/C [34]: 46.8% | viability, T/C [35]: 41.6% | viability, T/C [36]: 48.5%

CC1COCCN1c1cc(C2(O)CC3CCC(C2)O3)c2cnn(-c3ccn[nH]3)c2n1 (stereo unspecified) + Cc1[nH]c2ccc(F)cc2c1-c1nc2c3cccnc3c3ncccc3c2[nH]1
IC50 (second compound 0.0316 µM): 71.9 nM | IC50 (second compound 0.1 µM): 67.9 nM | IC50 (second compound 0.316 µM): 118 nM | IC50 (second compound 1 µM): 67.5 nM | IC50 (second compound 3.16 µM): 46.6 nM | IC50 (second compound 10 µM): 59.9 nM | viability, T/C [1]: 67.4% | viability, T/C [2]: 43% | viability, T/C [3]: 17.3% | viability, T/C [4]: 10.1% | viability, T/C [5]: 11.5% | viability, T/C [6]: 7.63% | viability, T/C [7]: 66.5% | viability, T/C [8]: 41.6% | viability, T/C [9]: 14.1% | viability, T/C [10]: 8.96% | viability, T/C [11]: 12% | viability, T/C [12]: 8.29% | viability, T/C [13]: 56.8% | viability, T/C [14]: 55.5% | viability, T/C [15]: 16.6% | viability, T/C [16]: 8.98% | viability, T/C [17]: 11.9% | viability, T/C [18]: 8.2% | viability, T/C [19]: 61.8% | viability, T/C [20]: 44% | viability, T/C [21]: 19.3% | viability, T/C [22]: 12.1% | viability, T/C [23]: 10.7% | viability, T/C [24]: 8.42% | viability, T/C [25]: 57.6% | viability, T/C [26]: 35% | viability, T/C [27]: 17.2% | viability, T/C [28]: 9.84% | viability, T/C [29]: 11.1% | viability, T/C [30]: 8.07% | viability, T/C [31]: 64.1% | viability, T/C [32]: 38.7% | viability, T/C [33]: 13.5% | viability, T/C [34]: 11.5% | viability, T/C [35]: 10.8% | viability, T/C [36]: 8.33%
